Patent US20260125375A1 (Pfizer Inc., priority 2022, published 2026)
Where two headings read alike, the source gives them in different places.

What was measured:
CBL-B (residues 36-427) = target: T1, CBL-B (residues 36-427) (Homo sapiens, UniProt Q13191); test: Ligand Displacement Assay (LDA), HTRF competitive binding against BODIPY-labeled fluorescent tracer, CBL-B; conditions: geometric mean of the number of tests, read-out: CBL-B Ki (nM) GMean
T1 construct: Purified CBL-B (residues 36-427) and C-CBL (residues 46-435) proteins from baculovirus-infected insect cells; made in house; host or cells: baculovirus-infected insect cells
Method in brief: (§1)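 Insect-cell (baculovirus) protein, N-term AviTag biotinylated via BirA, captured by SA-Tb; BODIPY tracer, KD measured per protein. 3-fold serial dilutions, duplicate, […], 2% DMSO final. Ki (nM) = geomean of runs.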

C-CBL (residues 46-435) = target: T2, C-CBL (residues 46-435) (Homo sapiens, UniProt P22681); test: Ligand Displacement Assay (LDA), HTRF competitive binding against BODIPY-labeled fluorescent tracer, C-CBL; conditions: geometric mean of the number of tests, read-out: C-CBL Ki (nM) GMean
T2 construct: Purified CBL-B (residues 36-427) and C-CBL (residues 46-435) proteins from baculovirus-infected insect cells; made in house; host or cells: baculovirus-infected insect cells
T2 sequence (P22681 46-435): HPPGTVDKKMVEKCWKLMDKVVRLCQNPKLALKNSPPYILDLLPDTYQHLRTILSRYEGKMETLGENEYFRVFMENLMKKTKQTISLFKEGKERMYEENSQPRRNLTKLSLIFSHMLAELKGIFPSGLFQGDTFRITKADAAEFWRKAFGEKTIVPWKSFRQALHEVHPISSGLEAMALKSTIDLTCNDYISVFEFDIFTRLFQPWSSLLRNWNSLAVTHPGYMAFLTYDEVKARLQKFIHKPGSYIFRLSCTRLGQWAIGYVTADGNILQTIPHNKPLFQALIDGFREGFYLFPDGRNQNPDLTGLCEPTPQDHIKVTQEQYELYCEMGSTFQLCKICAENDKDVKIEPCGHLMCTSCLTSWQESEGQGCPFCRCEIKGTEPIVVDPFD
Method in brief: as §1

CBL-B = target: T3, CBL-B (Homo sapiens, UniProt Q13191); test: Jurkat HiBit-IL2 assay (c-CBL KO), reporter cell line expressing CBL-B only; assay type: cell-based; conditions: geometric mean, read-out: C-CBL KO EC50 (nM) GMean
T3 construct: endogenous in cells; host or cells: Jurkat HiBit-IL2 reporter cells, C-CBL knocked out by CRISPR
Excerpt: (§2) Jurkat HiBit-IL2 Assay (WT, c-CBL KO, CBL-B KO)
(§3) The purpose of the Jurkat HiBit-IL2 assay is to evaluate the effect of the inhibition of CBL-B and/or C-CBL on TCR/CD28 stimulated interleukin-2 (IL-2) secretion.
(§4) The expression of IL-2 can then be accurately measured by HiBit luciferase assay. Further, C-CBL or CBL-B was knocked out by CRISPR respectively in this Jurkat HiBit-IL2 reporter cell line to create reporter cell line expressing CBL-B only (c-CBL knockout (KO)) or C-CBL only (CBL-B KO).
(§5) All three reporter cell lines were maintained in RPMI-1640 media with GlutaMax, 10% fetal bovine serum, 100 units/ml of penicillin, and 100 μg/ml of streptomycin at 37° C., 5% CO2, at a cell density 1×10e5-2×10e6 viable cells/ml. Serial diluted compounds in DMSO (40 nl/well, final 0.1% DMSO in assay cell culture) were plated into 384-well white-wall clear-bottom cell culture plates. Reporter cells were pelleted and resuspended in fresh cell culture medium to 0.66×10e6 cells/ml and added to the assay plate at 30 μl/well (20,000 cells/well). The cells were incubated with compounds for 1 hour at 37° C., 5% CO2. 10 μl/well of anti-CD3 antibody (OKT3) and anti-CD28 antibody (CD28.2) prediluted in fresh cell culture medium at 4× final concentration (anti-CD3 mAb: 4 μg/ml; anti-CD28 mAb: 8 μg/ml) was added into the cells (final concentration of anti-CD3 mAb: 1 μg/ml; anti-CD28 mAb: 2 μg/ml). The cells were cultured for another 4 hours at 37° C., 5% CO2. The Nano-Glo HiBiT Lytic Reagent was prepared following the manufacturer's protocol. 20 ul/well of the Nano-Glo HiBiT Lytic Reagent was added into the reporter cell culture assay plate and incubated at room temperature (20-25° C.) for 15 minutes. The plates were read on a Perkin-Elmer EnVision plate reader with 0.1 second integration time. Data were normalized to “Fold of Effect” with the anti-CD3 and anti-CD28 antibodies only samples as the baseline activation level and EC50 was calculated. The EC50 (nM) values reported are the geometric means (GMean) of the number of tests conducted.

C-CBL = target: T4, C-CBL (Homo sapiens, UniProt P22681); test: Jurkat HiBit-IL2 assay (CBL-B KO), reporter cell line expressing C-CBL only; assay type: cell-based; conditions: geometric mean, read-out: CBL-B KO EC50 (nM) GMean
T4 construct: endogenous in cells; host or cells: Jurkat HiBit-IL2 reporter cells, CBL-B knocked out by CRISPR
Excerpt: as §2, §3, §4, §5

WT CBL-B (36-427) = target: T5, WT CBL-B (36-427) (Homo sapiens, UniProt Q13191); test: Surface Plasmon Resonance (SPR) assay, binding affinity and kinetics, CBL-B; conditions: SPR at 10° C., biotinylated WT CBL-B (36-427) on streptavidin chip; geometric mean; read-out: CBL-B SPR Kd (nM) GMean
T5 construct: N-terminal biotinylated WT CBL-B (36-427) and C-CBL (46-435) were captured on a streptavidin (SA) coated sensor chip
Method in brief: (§6)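 Biotinylated WT CBL-B (36-427) or C-CBL (46-435) captured on streptavidin chip (~5000–6000 RU); binding at 10° C in HEPES buffer pH 7.2 with 2% DMSO. Multi-cycle: 2-fold, 10-point series from 10 or 100 μM, 90 s association. Single-cycle: 3-fold, 6-point, 0.001–1 μM, 120 s association, >5400 s dissociation.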

C-CBL (46-435) = target: T6, C-CBL (46-435) (Homo sapiens, UniProt P22681); test: Surface Plasmon Resonance (SPR) assay, binding affinity and kinetics, C-CBL; conditions: SPR at 10° C., biotinylated C-CBL (46-435) on streptavidin chip; geometric mean; read-out: C-CBL SPR Kd (nM) GMean
T6 construct: N-terminal biotinylated WT CBL-B (36-427) and C-CBL (46-435) were captured on a streptavidin (SA) coated sensor chip
T6 sequence (P22681 46-435): T2 sequence (P22681 46-435)
Method in brief: as §6

[1] = C-CBL KO (expressing CBL-B only), Table 16b (further repetition)
[2] = c-CBL KO (CBL-B only), anti-CD3/anti-CD28 stimulation 4 hours, Table 16a
[3] = CBL-B KO (C-CBL only), anti-CD3/anti-CD28 stimulation 4 hours, Table 16a
[4] = CBL-B KO (expressing C-CBL only), Table 16b (further repetition)

Compound: C[C@@H](NC1CC[C@H]1O)c1nc(C(F)(F)F)cc2c(-c3cccc([C@H](c4nncn4C)C4CCC4)c3)n[nH]c12 (single isomer, unassigned) [Example D31]
- Ki (CBL-B (residues 36-427)): 4 nM
- Ki (C-CBL (residues 46-435)): 27.3 nM
- EC50 (CBL-B; [1]): 56 nM
- EC50 (CBL-B; [2]): 16 nM
- EC50 (C-CBL; [3]): 199 nM
- EC50 (C-CBL; [4]): 258 nM

Compound: C[C@H](NC(C)(C)CO)c1nc(C(F)(F)F)cc2c(-c3cccc([C@H](c4nncn4C)C4CCC4)c3)n[nH]c12 (single isomer, unassigned) [Example D17]
- Ki (CBL-B (residues 36-427)): 1.4 nM
- Ki (C-CBL (residues 46-435)): 33.2 nM
- EC50 (CBL-B; [1]): 43 nM
- EC50 (CBL-B; [2]): 19 nM
- EC50 (C-CBL; [3]): 270 nM
- EC50 (C-CBL; [4]): 552 nM

Compound: C[C@@H](CO)N[C@H](C)c1nc(C(F)(F)F)cc2c(-c3cccc([C@H](c4nncn4C)C4CCC4)c3)n[nH]c12 (single isomer, unassigned) [Example D63]
- Ki (CBL-B (residues 36-427)): 8.4 nM
- Ki (C-CBL (residues 46-435)): 67 nM
- EC50 (CBL-B; [1]): 121 nM
- EC50 (C-CBL; [4]): 577 nM

Compound: C[C@@H](N[C@@H]1CC[C@@H]1O)c1nc(C(F)(F)F)cc2c(-c3cccc([C@H](c4nncn4C)C4CCC4)c3)n[nH]c12 (single isomer, unassigned) [Example D29]
- Ki (CBL-B (residues 36-427)): 1.9 nM
- Ki (C-CBL (residues 46-435)): 23.7 nM
- EC50 (CBL-B; [1]): 36 nM
- EC50 (CBL-B; [2]): 11 nM
- EC50 (C-CBL; [3]): 139 nM
- EC50 (C-CBL; [4]): 224 nM

Compound: CC(O)CNC(C)c1nc(C2CC2)cc2c(-c3cccc(C(c4nncn4C)C4CCC4)c3)n[nH]c12 (single isomer, unassigned) [Example H2]
- Ki (CBL-B (residues 36-427)): 1.4 nM
- Ki (C-CBL (residues 46-435)): 18.3 nM
- EC50 (CBL-B; [1]): 41 nM
- EC50 (CBL-B; [2]): 17 nM
- EC50 (C-CBL; [3]): 232 nM
- EC50 (C-CBL; [4]): 165 nM

Compound: C[C@H](N[C@@H]1CC[C@H]1O)c1nc(C(F)(F)F)cc2c(-c3cccc([C@H](c4nncn4C)C4CCC4)c3)n[nH]c12 (single isomer, unassigned) [Example D23]
- Ki (CBL-B (residues 36-427)): 1.8 nM
- Ki (C-CBL (residues 46-435)): 9.9 nM
- EC50 (CBL-B; [1]): 21 nM
- EC50 (CBL-B; [2]): 6 nM
- EC50 (C-CBL; [3]): 63 nM
- EC50 (C-CBL; [4]): 124 nM

Compound: Cn1cnnc1[C@@H](c1cccc(-c2n[nH]c3c(CN[C@@H]4CCC(F)(F)C4)nc(C(F)(F)F)cc23)c1)C1CCC1 [Example C5, (1R)-N-{[3-{3-[(R)-cyclobutyl(4-methyl-4H-1,2,4-triazol-3-yl)methyl]phenyl}-5-(trifluoromethyl)-1H-pyrazolo[3,4-c]cyclopen-7-yl]methyl}-3,3-difluorocyclopentan-1-amine]
- Ki (CBL-B (residues 36-427)): 55.3 nM
- Ki (C-CBL (residues 46-435)): 526 nM
- Kd (WT CBL-B (36-427)): 3.4 nM
- Kd (C-CBL (46-435)): 203 nM
- EC50 (C-CBL; [3]): 1250 nM

Compound: C[C@H](CO)c1nc(C(F)(F)F)cc2c(-c3cccc([C@H](c4nncn4C)C4CCC4)c3)n[nH]c12 (single isomer, unassigned) [Example K3, (2ξ)-2-[3-{3-[(ξ)-cyclobutyl(4-methyl-4H-1,2,4-triazol-3-yl)methyl]phenyl}-5-(trifluoromethyl)-1H-pyrazolo[3,4-c]pyridin-7-yl]propan-1-ol]
- Ki (CBL-B (residues 36-427)): 11 nM
- Ki (C-CBL (residues 46-435)): 96.5 nM
- Kd (WT CBL-B (36-427)): 4 nM
- Kd (C-CBL (46-435)): 160 nM
